# Reference: patent US6020521A, “Macrolide LHRH antagonists” (Abbott Laboratories, priority 1998, dated 2000)
# Biological target: T1, LHRH rat pituitary receptor (Rattus norvegicus, UniProt P30969)
# T1 construct: from tissue; host or cells: rat pituitary
# T1 sequence (P30969 1-327): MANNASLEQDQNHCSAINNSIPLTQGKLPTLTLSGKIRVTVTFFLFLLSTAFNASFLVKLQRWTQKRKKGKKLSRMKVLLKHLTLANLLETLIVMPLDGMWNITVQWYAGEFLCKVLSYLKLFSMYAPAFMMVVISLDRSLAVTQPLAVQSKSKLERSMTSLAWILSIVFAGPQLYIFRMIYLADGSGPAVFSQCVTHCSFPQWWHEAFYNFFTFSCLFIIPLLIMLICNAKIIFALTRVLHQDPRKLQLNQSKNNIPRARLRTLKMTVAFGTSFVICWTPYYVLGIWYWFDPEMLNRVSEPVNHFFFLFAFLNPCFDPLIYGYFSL
# Assay: LHRH rat pituitary receptor binding (pKI)
# Settings: receptor binding affinity, negative logarithm of the equilibrium dissociation constants
# Procedure: Representative compounds of the present invention were evaluated in in vitro tests for LHRH rat pituitary receptor binding (pKI) and for LH inhibition from rat pituitary cells for antagonist potency (pA2). The tests employed the methods detailed in F. Haviv, et al. J. Med. Chem., 32: 2340-2344 (1989). The receptor binding affinity (pKI) is the negative logarithm of the equilibrium dissociation constants.
Compound,Ki [nM],p KI
"CC[C@H]1OC(=O)[C@H](C)[C@@H](OC(=O)N2C(=O)OC[C@@H]2C)[C@H](C)[C@@H](O[C@@H]2O[C@H](C)C[C@H](N(C)CC3CC3)[C@H]2O)[C@](C)(OC)C[C@@H](C)C(=O)[C@H](C)[C@H]2N(CCc3ccc(F)cc3)C(=O)O[C@]12C [Example 28, 11-Deoxy-11-[carboxy(4-fluorophenethyl)amino]-3-O-[4-(S)-methyl-oxazolidin-2-one]carbamoyl-5-O-(3'-N-desmethyl-3'-N-cyclopropylmethyl)desosaminyl-6-O-methyl-erythronolide A 11,12-(cyclic carbamate)]",0.316,–
"CC[C@H]1OC(=O)[C@H](C)[C@@H](OC(=O)N2C(=O)OC[C@@H]2C)[C@H](C)[C@@H](O[C@@H]2O[C@H](C)C[C@H](N(C)C3CCCC3)[C@H]2O)[C@](C)(OC)C[C@@H](C)C(=O)[C@H](C)[C@H]2N(CCc3ccc(F)cc3)C(=O)O[C@]12C [Example 30, 11-Deoxy-11-[carboxy(4-fluorophenethyl)amino]-3-O-[4-(S)-methyl-oxazolidin-2-one]carbamoyl-5-O-(3'-N-desmethyl-3'-N-cyclopentyl)desosaminyl-6-O-methyl-erythronolide A 11,12-(cyclic carbamate)]",0.129,–
"CC[C@H]1OC(=O)[C@H](C)[C@@H](OC(=O)N2C(=O)OC[C@@H]2C)[C@H](C)[C@@H](O[C@@H]2O[C@H](C)C[C@H](N(C)C3CCC3)[C@H]2O)[C@](C)(OC)C[C@@H](C)C(=O)[C@H](C)[C@H]2N(CCc3ccc(Cl)cc3)C(=O)O[C@]12C [Example 24, 11-Deoxy-11-[carboxy(4-chlorophenethyl)amino]-3-O-[4-(S)-methyl-oxazolidin-2-one]carbamoyl-5-O-(3'-N-desmethyl-3'-N-cyclobutyl)desosaminyl-6-O-methyl-erythronolide A 11,12-(cyclic carbamate)]",0.251,–
"CC[C@H]1OC(=O)[C@H](C)[C@@H](OC(=O)N2C(=O)OC[C@@H]2C)[C@H](C)[C@@H](O[C@@H]2O[C@H](C)C[C@H](N(C)CC3(C)CC3)[C@H]2O)[C@](C)(OC)C[C@@H](C)C(=O)[C@H](C)[C@H]2N(CCc3ccc(F)c(Cl)c3)C(=O)O[C@]12C [Example 55, 11-Deoxy-11-[carboxy(3-chloro-4-fluorophenethyl)amino]-3-O-[4-(S)-methyl-oxazolidin-2-one]carbamoyl-5-O-[3'-N-desmethyl-3'-N-(1-methyl-cyclopropyl)methyl]desosaminyl-6-O-methyl-erythronolide A 11,12-(cyclic carbamate)]",0.316,–
"CCC1OC(=O)C(C)C(OC(=O)C2CCOC2)C(C)C(OC2OC(C)CC(NC(C)C)C2O)C(C)(OC)CC(C)C(=O)C(C)C2N(CCc3ccc(Cl)cc3)C(=O)OC12C (stereo not drawn) [Example 10, 11-Deoxy-11-[carboxy(4-chlorophenethyl)amino]-5-O-(3'-bis-N-desmethyl-3'-N-isopropyl)desosaminyl-3-O-(tetrahydro-3-furoyl)-6-O-methyl-erythronolide A 11,12-(cyclic carbamate)]",–,8.09
"CC[C@H]1OC(=O)[C@H](C)[C@@H](OC(=O)N2C(=O)OC[C@@H]2C)[C@H](C)[C@@H](O[C@@H]2O[C@H](C)C[C@H](N(C)C(C)C)[C@H]2O)[C@](C)(OC)C[C@@H](C)C(=O)[C@H](C)[C@H]2N(CCc3ccc(F)cc3)C(=O)O[C@]12C [Example 32, 11-Deoxy-11-[carboxy(4-fluorophenethyl)amino]-3-O-[4-(S)-methyl-oxazolidin-2-one]carbamoyl-5-O-(3'-N-desmethyl-3'-N-isopropyl)desosaminyl-6-O-methyl-erythronolide A 11,12-(cyclic carbamate)]",0.155,–
"CCCN(C)[C@H]1C[C@@H](C)O[C@@H](O[C@@H]2[C@@H](C)[C@H](OC(=O)N3C(=O)OC[C@@H]3C)[C@@H](C)C(=O)O[C@H](CC)[C@@]3(C)OC(=O)N(CCc4ccc(F)cc4)[C@@H]3[C@@H](C)C(=O)[C@H](C)C[C@@]2(C)OC)[C@@H]1O [Example 31, 11-Deoxy-11-[carboxy(4-fluorophenethyl)amino]-3-O-[4-(S)-methyl-oxazolidin-2-one]carbamoyl-5-O-(3'-N-desmethyl-3'-N-n-propyl)desosaminyl-6-O-methyl-erythronolide A 11,12-(cyclic carbamate)]",0.955,–

# Other lines, results leading:
Ki [nM],p KI,Compound
0.0741,–,"CC[C@H]1OC(=O)[C@H](C)[C@@H](OC(=O)N2C(=O)OC[C@@H]2C)[C@H](C)[C@@H](O[C@@H]2O[C@H](C)C[C@H](N(CC3CC3)C(C)C)[C@H]2O)[C@](C)(OC)C[C@@H](C)C(=O)[C@H](C)[C@H]2N(CCc3ccc(Cl)c(Cl)c3)C(=O)O[C@]12C [Example 22, 11-Deoxy-11-[carboxy(3,4-dichlorophenethyl)amino]-3-O-[4-(S)-methyl-oxazolidin-2-one]carbamoyl-5-O-(3'-bis-N-desmethyl-3'-N-cyclopropylmethyl-3'-N-isopropyl)desosaminyl-6-O-methyl-erythronolide A 11,12-(cyclic carbamate)]"
0.562,–,"CC[C@H]1OC(=O)[C@H](C)[C@@H](OC(=O)N2C(=O)OC[C@@H]2C)[C@H](C)[C@@H](O[C@@H]2O[C@H](C)C[C@H](N(C)CC(C)C)[C@H]2O)[C@](C)(OC)C[C@@H](C)C(=O)[C@H](C)[C@H]2N(CCc3ccc(Cl)c(Cl)c3)C(=O)O[C@]12C [Example 17, 11-Deoxy-11-[carboxy(3,4-dichlorophenethyl)amino]-3-O-[4-(S)-methyl-oxazolidin-2-one]carbamoyl-5-O-(3'-N-desmethyl-3'-N-isobutyl)desosaminyl-6-O-methyl-erythronolide A 11,12-(cyclic carbamate)]"
6.76,–,"CC[C@H]1COC(=O)N1C(=O)O[C@H]1[C@H](C)[C@@H](O[C@@H]2O[C@H](C)C[C@H](N(C)CC3CC3)[C@H]2O)[C@](C)(OC)C[C@@H](C)C(=O)[C@H](C)[C@H]2N(CCc3ccc(Cl)c(Cl)c3)C(=O)O[C@]2(C)[C@@H](CC)OC(=O)[C@@H]1C [Example 38, 11-Deoxy-11-[carboxy(3,4-dichlorophenethyl)amino]-3-O-[4-(S)-ethyl-oxazolidin-2-one]carbamoyl-5-O-(3'-N-desmethyl-3'-N-cyclopropylmethyl)desosaminyl-6-O-methyl-erythronolide A 11,12-(cyclic carbamate)]"
1.48,–,"CC[C@H]1OC(=O)[C@H](C)[C@@H](OC(=O)N2C(=O)OC[C@@H]2C)[C@H](C)[C@@H](O[C@@H]2O[C@H](C)C[C@H](N(C)CC3(C)CC3)[C@H]2O)[C@](C)(OC)C[C@@H](C)C(=O)[C@H](C)[C@H]2N(CCc3ccc(Cl)c(Cl)c3)C(=O)O[C@]12C [Example 54, 11-Deoxy-11-[carboxy(3,4-dichlorophenethyl)amino]-3-O-[4-(S)-methyl-oxazolidin-2-one]carbamoyl-5-O-[3'-N-desmethyl-3'-N-(1-methyl-cyclopropyl)methyl]desosaminyl-6-O-methyl-erythronolide A 11,12-(cyclic carbamate)]"
0.245,–,"CCCN(C(C)C)[C@H]1C[C@@H](C)O[C@@H](O[C@@H]2[C@@H](C)[C@H](OC(=O)N3C(=O)OC[C@@H]3C)[C@@H](C)C(=O)O[C@H](CC)[C@@]3(C)OC(=O)N(CCc4ccc(Cl)c(Cl)c4)[C@@H]3[C@@H](C)C(=O)[C@H](C)C[C@@]2(C)OC)[C@@H]1O [Example 21, 11-Deoxy-11-[carboxy(3,4-dichlorophenethyl)amino]-3-O-[4-(S)-methyl-oxazolidin-2-one]carbamoyl-5-O-(3'-bis-N-desmethyl-3'-N-n-propyl-3'-N-isopropyl)desosaminyl-6-O-methyl-erythronolide A 11,12-(cyclic carbamate)]"
8.13,–,"CC[C@H]1OC(=O)[C@H](C)[C@@H](OC(=O)N2C(=O)OC[C@@H]2C)[C@H](C)[C@@H](O[C@@H]2O[C@H](C)C[C@H](NCC3CC3)[C@H]2O)[C@](C)(OC)C[C@@H](C)C(=O)[C@H](C)[C@H]2N(CCc3ccc(Cl)c(Cl)c3)C(=O)O[C@]12C [Example 45, 11-Deoxy-11-[carboxy(3,4-dichlorophenethyl)amino]-3-O-[4-(S)-methyl-oxazolidin-2-one]carbamoyl-5-O-(3'-bis-N-desmethyl-3'-N-cyclopropylmethyl)desosaminyl-6-O-methyl-erythronolide A 11,12-(cyclic carbamate)]"
3.09,–,"CC[C@H]1OC(=O)[C@H](C)[C@@H](OC(=O)N2C(=O)OC[C@@H]2C)[C@H](C)[C@@H](O[C@@H]2O[C@H](C)C[C@H](N(C)C3CCC3)[C@H]2O)[C@](C)(OC)C[C@@H](C)C(=O)[C@H](C)[C@H]2N(CCc3ccc(Cl)c(Cl)c3)C(=O)O[C@]12C [Example 13, 11-Deoxy-11-[carboxy(3,4-dichlorophenethyl)amino]-3-O-[4-(S)-methyl-oxazolidin-2-one]carbamoyl-5-O-(3'-N-desmethyl-3'-N-cyclobutyl)desosaminyl-6-O-methyl-erythronolide A 11,12-(cyclic carbamate)]"
0.589,–,"CC[C@H]1OC(=O)[C@H](C)[C@@H](OC(=O)N2C(=O)OC[C@@H]2C)[C@H](C)[C@@H](O[C@@H]2O[C@H](C)C[C@H](N(CC)C(C)C)[C@H]2O)[C@](C)(OC)C[C@@H](C)C(=O)[C@H](C)[C@H]2N(CCc3ccc(Cl)c(Cl)c3)C(=O)O[C@]12C [Example 20, 11-Deoxy-11-[carboxy(3,4-dichlorophenethyl)amino]-3-O-[4-(S)-methyl-oxazolidin-2-one]carbamoyl-5-O-(3'-bis-N-desmethyl-3'-N-ethyl-3'-N-isopropyl)desosaminyl-6-O-methyl-erythronolide A 11,12-(cyclic carbamate)]"
